# What was measured:
# [1] = test system: male C57BL/6NHsd mice; conditions: mouse, in vivo
# [2] = test system: male C57BL/6NHsd mice; conditions: mouse, in vivo; remark: listed apart in the source
# [3] = test system: KOR; test: Literature binding affinity at KOR; conditions: from literature Ki values
# [4] = test system: MOR; test: Literature binding affinity at MOR; conditions: from literature Ki values
# [5] = test system: male C57BL/6NHsd mice; conditions: mouse, in vivo; remark: listed apart in the source
# [6] = biological target: KOR; conditions: cited from earlier work
# [7] = biological target: MOR; conditions: cited from earlier work
# [8] = biological target: DOR; conditions: cited from earlier work
smiles,measurement,setting,value
COC(=O)[C@@H]1C[C@H](OC(=O)c2ccccc2)C(=O)[C@H]2[C@@]1(C)CC[C@H]1C(=O)O[C@H](c3ccoc3)C[C@]21C [Herkinorin],latency to hind paw lick or flutter compared to vehicle,[1],"Neither salivinorin A, herkinorin, nor compound 10 were observed to significantly influence the latency to paw response"
same,latency to tail withdrawal compared to vehicle,[2],"Neither salvinorin A, herkinorin, nor compounds 2 or 10 demonstrated significant antinociception"
same,fold lower affinity for KOR compared to salvinorin A,[3],47 fold
same,fold higher affinity for MOR compared to salvinorin A,[4],≥ 83 fold
same,time spent in the open arms compared to vehicle,[5],"notable increase in open arm time, but this was not statistically significant"
same,Kd,[6]; read-out: KD [nM] (KOR),90 ± 2 nM
same,Ki,[6]; read-out: Ki (KOR),90 nM
same,Kd,[7]; read-out: KD [nM] (MOR),12 ± 1 nM
same,Ki,[7]; read-out: Ki (MOR),12 nM
same,Kd,"[8]; read-out: KD [nM] (DOR), Literature values",1170 ± 60 nM
same,Ki,[8]; read-out: Ki (DOR),1170 nM

# — article PMC9015904 (ChemMedChem, 2022)
